Measured values reported in US10245267B2, “Biaryl amide compounds as kinase inhibitors” (NOVARTIS AG, priority 2013, dated 2019).
Like-named read-outs stand apart in the source and are kept apart here.

Tests used:
[1] = target: C-Raf FL (full-length C-Raf protein) (Homo sapiens (Human), UniProt P04049, Y340E/Y341E); assay type: biochemical; conditions: read-out: c-Raf FL IC-50
Description: In Vitro Raf Activity Determination
Sf9 cells co-expressing both proteins were lysed and subjected to immobilized nickel chromatography and eluted with Imidazole. A second column (StrepII binding column) was used and eluted with desthiobiotin. Protein Tags were removed using Prescission enzyme and the protein was further purified using a flowthrough step to remove tags.
C-Raf FL refers to the full-length C-Raf protein.
Full length MEK1 with an inactivating K97R ATP binding site mutation is utilized as a RAF substrate. The MEK1 cDNA was subcloned with an N-terminal (his)6 tag into a vector for E. Coli expression. The MEK1 substrate was purified from E. Coli lysate by nickel affinity chromatography followed by anion exchange. The final MEK1 preparation was biotinylated (Pierce EZ-Link Sulfo-NHS-LC-Biotin) and concentrated.
(§1) Assay buffer: 50 mM Tris, pH 7.5, 15 mM MgCl2, 0.01% Bovine Serum Albumin (BSA), 1 mM dithiothreitol (DTT) Stop buffer: 60 mM ethylenediaminetetraacetic acid (EDTA), 0.01% Tween® 20
biotinylated Mek, kinase dead
(§2) 384 well low volume assay plates (White Greiner® plates)
(§3) biotinylated Mek, Kinase dead approximately 10 nM
(§4) Pre-incubation time with compounds 60 minutes at room temperature
(§5) Reaction time 1 or 3 hours at room temperature
(§6) The plate was incubated for 60 minutes at room temperature. […] The additions were carried out under dark conditions to protect the detection beads from light. A lid was placed on top of the plate and incubated for 1 hour at room temperature, then the luminescence was read on a PerkinElmer Envision instrument.

[2] = target: b-Raf(V600E) (Homo sapiens (Human), UniProt P15056, V600E); conditions: read-out: b-Raf IC-50; Table 2; Alpha Screen, ATP 10 μM, 3 hours reaction
Protocol: In Vitro Raf Activity Determination
Full length MEK1 with an inactivating K97R ATP binding site mutation is utilized as a RAF substrate.
as §1
biotinylated Mek, kinase dead
as §2, §3, §4, §5, §6

[3] = Table 2, Alpha Screen, ATP 1 uM, 1 hour reaction

b-Raf(V600E), sequence (P15056 whole entry V600E): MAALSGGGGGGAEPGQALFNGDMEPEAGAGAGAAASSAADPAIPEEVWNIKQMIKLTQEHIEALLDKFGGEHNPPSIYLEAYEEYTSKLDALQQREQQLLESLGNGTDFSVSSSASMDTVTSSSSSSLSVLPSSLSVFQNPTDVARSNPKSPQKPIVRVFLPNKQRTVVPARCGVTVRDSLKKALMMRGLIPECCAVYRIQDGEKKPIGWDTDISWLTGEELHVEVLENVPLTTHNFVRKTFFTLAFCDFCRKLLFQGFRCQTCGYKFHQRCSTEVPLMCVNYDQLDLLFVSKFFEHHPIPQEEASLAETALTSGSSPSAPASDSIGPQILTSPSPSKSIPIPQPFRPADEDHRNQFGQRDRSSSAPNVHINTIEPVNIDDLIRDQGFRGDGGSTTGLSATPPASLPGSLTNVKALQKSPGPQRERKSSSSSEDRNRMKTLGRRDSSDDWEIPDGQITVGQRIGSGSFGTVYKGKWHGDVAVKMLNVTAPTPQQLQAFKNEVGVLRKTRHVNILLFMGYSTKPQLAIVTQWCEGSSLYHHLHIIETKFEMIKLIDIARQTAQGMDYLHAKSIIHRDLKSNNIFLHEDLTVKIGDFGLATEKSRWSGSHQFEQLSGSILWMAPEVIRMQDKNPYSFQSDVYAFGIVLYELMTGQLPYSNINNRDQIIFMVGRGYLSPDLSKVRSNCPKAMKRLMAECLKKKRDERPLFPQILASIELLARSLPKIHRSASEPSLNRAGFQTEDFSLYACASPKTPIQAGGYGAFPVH
C-Raf FL (full-length C-Raf protein), sequence (P04049 whole entry Y340E/Y341E): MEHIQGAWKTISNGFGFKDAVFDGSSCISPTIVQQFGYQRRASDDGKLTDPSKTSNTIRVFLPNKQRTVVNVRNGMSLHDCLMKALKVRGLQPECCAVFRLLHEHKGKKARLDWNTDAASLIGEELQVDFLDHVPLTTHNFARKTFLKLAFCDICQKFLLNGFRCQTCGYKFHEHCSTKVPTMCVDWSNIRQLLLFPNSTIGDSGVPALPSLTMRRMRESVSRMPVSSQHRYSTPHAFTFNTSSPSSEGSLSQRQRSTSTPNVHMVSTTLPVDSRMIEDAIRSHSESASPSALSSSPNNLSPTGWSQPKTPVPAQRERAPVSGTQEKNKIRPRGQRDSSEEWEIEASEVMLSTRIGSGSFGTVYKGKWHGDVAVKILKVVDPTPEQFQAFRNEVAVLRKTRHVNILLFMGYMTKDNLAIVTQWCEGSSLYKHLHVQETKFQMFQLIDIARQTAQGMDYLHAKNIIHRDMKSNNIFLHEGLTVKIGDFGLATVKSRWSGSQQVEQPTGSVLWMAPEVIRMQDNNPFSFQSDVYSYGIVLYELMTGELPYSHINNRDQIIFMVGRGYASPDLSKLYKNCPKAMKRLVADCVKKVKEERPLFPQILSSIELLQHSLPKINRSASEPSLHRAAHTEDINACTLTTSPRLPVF
C-Raf FL (full-length C-Raf protein), sequence (P63104 whole entry partner): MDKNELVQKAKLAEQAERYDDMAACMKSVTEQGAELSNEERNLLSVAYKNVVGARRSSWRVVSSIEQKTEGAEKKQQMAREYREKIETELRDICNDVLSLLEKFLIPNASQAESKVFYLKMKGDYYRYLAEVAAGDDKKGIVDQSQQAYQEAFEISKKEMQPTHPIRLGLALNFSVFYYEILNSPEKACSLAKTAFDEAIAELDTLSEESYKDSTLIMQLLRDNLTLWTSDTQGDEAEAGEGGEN

Row | SMILES | IC50 [1] [nM] | IC50 [2] [nM] | IC50 [1, 3] [nM]
1 | Cc1ncc(NC(=O)c2cccc(C(F)(F)F)c2)cc1-c1cc(N2CCOCC2)nc(NC[C@@H](C)O)n1 [Example 743, (R)—N-(5-(2-((2-hydroxypropyl)amino)-6-morpholinopyrimidin-4-yl)-6-methylpyridin-3-yl)-3-(trifluoromethyl) benzamide] | 0.8 |  | 
2 | CCNc1nc(-c2cc(NC(=O)c3ccnc(C(F)(F)F)c3)ccc2C)cc(N2CCOCC2)n1 [Example 719, N-(3-(2-(ethylamino)-6-morpholinopyrimidin-4-yl)-4-methylphenyl)-2-(trifluoromethyl) isonicotinamide] |  | 2 | 
3 | CCNc1nc(-c2cc(C(=O)Nc3cccc(C(F)(F)F)c3)ccc2C)cc(N2CCOCC2)n1 [Example 710, 3-(2-(ethylamino)-6-morpholinopyrimidin-4-yl)-4-methyl-N-(3-(trifluoromethyl)phenyl) benzamide] |  | 4 | 1.6
4 | Cc1ccc(NC(=O)c2cccc(C(F)(F)F)c2)cc1-c1cc(N2CCOCC2)c(OCCO)nn1 [Example 590, N-(3-(6-(2-hydroxyethoxy)-5-morpholinopyridazin-3-yl)-4-methylphenyl)-3-(trifluoromethyl)benzamide] |  | 0.9 | 0.2
